US20250100982A1, “PLEUROMUTILIN DERIVATIVE WITH THIAZOLE SIDE CHAIN AND PREPARATION AND APPLICATION” (SOUTH CHINA AGRICULTURAL UNIVERSITY, priority 2023, published 2025)
Converted amounts (≈) assume the structure as drawn.

Columns and labels:
[1] = test system: methicillin-resistant Staphylococcus aureus ATCC43300; assay: microbe, parasite or virus in culture; type: cell-based; conditions: 24 h; for MIC, MRSA ATCC 43300: broth dilution, 37° C.
Excerpt: (§1) A broth dilution method was used in the experiment. Tiamulin was selected as a control drug in the experiment. The tiamulin is a pleuromutilin antibiotic as well as one of the top ten veterinary antibiotics in the world.
(§2) The strains used in the experiment were methicillin-resistant Staphylococcus aureus ATCC43300, Staphylococcus aureus ATCC29213, clinical Staphylococcus aureus AD3, clinical S. aureus 144, Mycoplasma gallisepticum 352, 352 tiamulin induced drug-resistant bacteria and clinical isolates M47.
(§3) Preparation of target compound stock solution: 6.4 mg of target compound was accurately weighed, placed in a 5 mL volumetric flask, and dissolved with 0.25 mL of DMSO and 0.25 mL of Tween 80; then 4.5 mL of distilled water was added for fixing the volume; the solution was fully shaken to obtain a stock solution (1280 μg/mL); and the stock solution was filtered with a 0.22 μm filter membrane and sterilized, subpackaged into small tubes, and stored at −20° C. The control drug tiamulin was also prepared according to the above method.
(§4) Preparation of bacterial solution: the strains that were well preserved at −20° C. were taken out and inoculated on a new MH plate, and after culture at 37° C. for 24 h, a single colony was selected and inoculated in MH medium for culturing again for 24 h. The selected single colony was transferred to sterile normal saline and the turbidity was adjusted to 0.6 McF. At this moment, the concentration of the bacterial solution was 10^6 CFU/mL.
(§5) Preparation of MIC plate: a sterile 96-well plate was taken; 180 μL of MH broth medium was added to the first well, 100 μL of MH broth medium was added to the second well to the 12th well; 20 μL of target compound solution with a concentration of 1280 μg/mL was added to the first well; after even mixing, 100 μL of solution was added to the second well, and mixed well; 100 μL of solution was absorbed to the third well, and so on; and 100 μL of solution was absorbed to the 12th well and discarded. At this moment, the drug concentrations in the wells were: 128, 64, 32, 16, 8, 4, 2, 1, 0.5, 0.25, 0.125, and 0.06 μg/mL, and three parallel groups were made for the drugs of the concentrations.
(§6) Inoculation of bacterial solution: 100 μL of bacterial solution was added into the first well to the 12th well, so that the final bacterial solution concentration in each well was about 5×10^5 CFU/mL, and the drug concentrations in the first well to the 12th well were 64, 32, 16, 8, 4, 2, 1, 0.5, 0.25, 0.125, 0.06 and 0.03 μg/mL respectively. […] When a single jumping hole occurred in the microbroth dilution method, the maximum drug concentration for inhibiting bacteria was recorded, and the experiment shall be repeated if multiple jumping holes occurred.

[2] = test system: Staphylococcus aureus ATCC29213; assay: In vitro antibacterial experiment, broth dilution MIC; type: cell-based; conditions: 24 h; for MIC, S. aureus ATCC 29213: 37° C.
Excerpt: as §1, §2, §3, §4, §5, §6

[3] = test system: clinical Staphylococcus aureus AD3; assay: as above; type: cell-based; conditions: 37° C., 24 h, clinical isolate
Excerpt: as §1, §2, §3, §4, §5, §6

[4] = test system: clinical S. aureus 144; assay: as above; type: cell-based, Staphylococcus aureus; conditions: 37° C., 24 h, clinical isolate
Excerpt: as §1, §2, §3, §4, §5, §6

[5] = test system: Mycoplasma gallisepticum 352; assay: In vitro inhibition experiment of mycoplasma activity, broth dilution MIC; type: cell-based; conditions: for MIC, Mycoplasma gallisepticum 352: 37° C.
Description: (§7) The broth dilution method was adopted in the experiment. The tiamulin was selected as the control drug in the experiment.
(§8) The strains used in the experiment were Mycoplasma gallisepticum 352, 352-tiamulin resistant strain, and M47.
(§9) Preparation of the target compound stock solution: the compound was dissolved with 1 mL of DMSO, then fixed in volume with a 250 mL volumetric flask and fully shaken to obtain the stock solution (5120 μg/mL).
(§10) The stock solution was diluted in petri dishes with a doubling dilution method. Each petri dish contained 2 ml of medical solution, and the medical solution was diluted to 20 ml, so that the final concentrations of the compound were […] respectively.
(§11) 15 sterile 2 mL EP tubes were placed in each row. 0.9 mL of liquid medium was added to the first tube, and 0.5 mL of liquid medium was added to the other tubes respectively. 0.1 mL of prepared medical solution was added to the first tube and fully mixed. Then, 0.5 mL of medical solution was added to the second tube, and so on. Finally, 0.5 mL of medical solution was absorbed and discarded.

[6] = test system: Mycoplasma gallisepticum M47; assay: as above; type: cell-based; conditions: clinical isolate; for MIC, Mycoplasma gallisepticum M47: 37° C.
Description: as §7, §8, §9, §10, §11

[7] = test system: Mycoplasma gallisepticum 352-tiamulin resistant strain; assay: microbe, parasite or virus in culture; type: cell-based; conditions: for MIC, Mycoplasma gallisepticum 352-tiamulin resistant strain: broth dilution, 37° C.
Description: as §7, §8, §9, §10, §11

C=CC1(C)CC(OC(=O)CSc2ncc(NC(=O)C3CCC3)s2)C2(C)C(C)CCC3(CCC(=O)C32)C(C)C1O (stereo not drawn) [Compound 2]
MIC, MRSA ATCC 43300 [1]: 0.0625 µg/mL (≈ 0.109 µM) | MIC, S. aureus ATCC 29213 [2]: 0.125 µg/mL (≈ 0.217 µM) | MIC, S. aureus AD3 [3]: 0.125 µg/mL (≈ 0.217 µM) | MIC, S. aureus 144 [4]: 0.25 µg/mL (≈ 0.435 µM) | MIC, Mycoplasma gallisepticum 352 [5]: 0.008 µg/mL (≈ 0.0139 µM) | MIC, Mycoplasma gallisepticum M47 [6]: 0.5 µg/mL (≈ 0.87 µM) | MIC, Mycoplasma gallisepticum 352-tiamulin resistant strain [7]: 0.25 µg/mL (≈ 0.435 µM)

C=CC1(C)CC(OC(=O)CSc2ncc(NC(=O)C3CCCCC3)s2)C2(C)C(C)CCC3(CCC(=O)C32)C(C)C1O (stereo not drawn) [Compound 4]
MIC, MRSA ATCC 43300 [1]: 0.125 µg/mL (≈ 0.207 µM) | MIC, S. aureus ATCC 29213 [2]: 0.03125 µg/mL (≈ 0.0518 µM) | MIC, S. aureus AD3 [3]: 0.0625 µg/mL (≈ 0.104 µM) | MIC, S. aureus 144 [4]: 0.0625 µg/mL (≈ 0.104 µM) | MIC, Mycoplasma gallisepticum 352 [5]: 0.015 µg/mL (≈ 0.0249 µM) | MIC, Mycoplasma gallisepticum M47 [6]: 1 µg/mL (≈ 1.66 µM) | MIC, Mycoplasma gallisepticum 352-tiamulin resistant strain [7]: 0.25 µg/mL (≈ 0.415 µM)

C=CC1(C)CC(OC(=O)CSc2ncc(NC(=O)COC(C)=O)s2)C2(C)C(C)CCC3(CCC(=O)C32)C(C)C1O (stereo not drawn) [Compound 10]
MIC, MRSA ATCC 43300 [1]: 0.0625 µg/mL (≈ 0.105 µM) | MIC, S. aureus ATCC 29213 [2]: 0.125 µg/mL (≈ 0.211 µM) | MIC, S. aureus AD3 [3]: 0.125 µg/mL (≈ 0.211 µM) | MIC, S. aureus 144 [4]: 0.0625 µg/mL (≈ 0.105 µM) | MIC, Mycoplasma gallisepticum 352 [5]: ≤0.004 µg/mL | MIC, Mycoplasma gallisepticum M47 [6]: 0.03 µg/mL (≈ 0.0506 µM) | MIC, Mycoplasma gallisepticum 352-tiamulin resistant strain [7]: 0.03 µg/mL (≈ 0.0506 µM)

C=CC1(C)CC(OC(=O)CSc2ncc(NC(=O)C(C)(C)CC)s2)C2(C)C(C)CCC3(CCC(=O)C32)C(C)C1O (stereo not drawn) [Compound 18]
MIC, MRSA ATCC 43300 [1]: 0.25 µg/mL (≈ 0.423 µM) | MIC, S. aureus ATCC 29213 [2]: 0.25 µg/mL (≈ 0.423 µM) | MIC, S. aureus AD3 [3]: 0.25 µg/mL (≈ 0.423 µM) | MIC, S. aureus 144 [4]: 0.5 µg/mL (≈ 0.846 µM) | MIC, Mycoplasma gallisepticum 352 [5]: 0.03 µg/mL (≈ 0.0508 µM) | MIC, Mycoplasma gallisepticum M47 [6]: 1 µg/mL (≈ 1.69 µM) | MIC, Mycoplasma gallisepticum 352-tiamulin resistant strain [7]: 0.5 µg/mL (≈ 0.846 µM)

C=CC1(C)CC(OC(=O)CSc2ncc(NC(=O)C(Cl)(Cl)Cl)s2)C2(C)C(C)CCC3(CCC(=O)C32)C(C)C1O (stereo not drawn) [Compound 23]
MIC, MRSA ATCC 43300 [1]: 1 µg/mL (≈ 1.57 µM) | MIC, S. aureus ATCC 29213 [2]: 2 µg/mL (≈ 3.13 µM) | MIC, S. aureus AD3 [3]: 1 µg/mL (≈ 1.57 µM) | MIC, S. aureus 144 [4]: 2 µg/mL (≈ 3.13 µM) | MIC, Mycoplasma gallisepticum 352 [5]: 0.125 µg/mL (≈ 0.196 µM) | MIC, Mycoplasma gallisepticum M47 [6]: 4 µg/mL (≈ 6.27 µM) | MIC, Mycoplasma gallisepticum 352-tiamulin resistant strain [7]: 1 µg/mL (≈ 1.57 µM)

C=C[C@]1(C)C[C@@H](OC(=O)CSCCN(CC)CC)[C@]2(C)[C@H](C)CC[C@]3(CCC(=O)[C@H]32)[C@@H](C)[C@@H]1O [Tiamulin, reference compound]
MIC ([1]; Staphylococcus aureus, ATCC 43300 / MRSA, read-out: MIC, MRSA ATCC 43300): 0.5 µg/mL (≈ 1.01 µM) | MIC ([2]; Staphylococcus aureus, ATCC29213, 37° C., read-out: MIC, S. aureus ATCC 29213): 1 µg/mL (≈ 2.03 µM) | MIC ([3]; Staphylococcus aureus, read-out: MIC, S. aureus AD3): 1 µg/mL (≈ 2.03 µM) | MIC ([4]; Staphylococcus aureus): 1 µg/mL (≈ 2.03 µM) | MIC ([5]; Mycoplasmoides gallisepticum, 352, 37° C.): ≤ 0.004 µg/mL | MIC ([6]; Mycoplasmoides gallisepticum, M47, 37° C.): 0.125 µg/mL (≈ 0.253 µM) | MIC ([7]; Mycoplasmoides gallisepticum, read-out: MIC, Mycoplasma gallisepticum 352-tiamulin resistant strain): 0.25 µg/mL (≈ 0.506 µM)
